The test system of one experiment is ROCK2. Kind of experiment: IL-1β-induced ROCK2 phosphorylation, Western blot in RAW Blue cells. Conditions: for Western Blot ROCK2 (heatmap grade of inhibition): RAW Blue cells, peptide 10^-6 M or Kineret 1.0 mg/mL 30 min, then IL-1β 100 ng/mL 15 min. The arrangement: key to Western Blot ROCK2 (heatmap grade of inhibition): 0: No effect; No effect 01234 Maximum inhibition/efficacy; No effect 01234 Maximum inhibition/efficacy; No effect 01234 Maximum inhibition/efficacy; 4: Maximum inhibition/efficacy. The class given is cell-based. Here is the method: RAW Blue cells (Invivogen) were grown under standard conditions (37°C, 5% CO2) and maintained under passage number 15. Cells were equilibrated with 1, 5, or 6 (10^−6M) or Kineret (1.0 mg/mL) for 30 min, after which time they were exposed to IL-1β (100 ng/mL) for 15 min. Cells were harvested and lysed on ice for 30 min using a radioimmunoprecipitation assay buffer (Cell Signaling) supplemented with 1 mM phenylmethylsulfonyl fluoride (PMSF) and cOmplete™ EDTA-free protease inhibitor cocktail (Roche, Mannheim, Germany, prepared according to the manufacturer's instructions). Protein concentrations were determined using a Bradford protein assay (Bio-Rad) on 96-well plates with a microplate reader (EnVision Multilabel reader) measuring OD at […]. Bovine serum albumin serial dilutions were used to generate a standard curve. Lysates were then mixed with 4X reducing sample buffer (Bio-Rad).
Lysates were loaded (30 μg protein per well) in a 5% acrylamide stacking gel, and samples were electrophoresed in a 12% acrylamide resolving gel for 1.5 h at 120 V, followed by a 1 h transfer onto polyvinylidene difluoride (PDVF) membranes at 100 V. Membranes were blocked and incubated with 1:1,000 dilution of primary antibody and 1:20,000 dilution of secondary antibodies according to the manufacturer's instructions. Antibodies used were for phospho-p38 MAPK (Cell Signaling, #9211), p38 MAPK (Cell Signaling, #9212), SAPK/JNK (Cell Signaling, #9252), phospho-SAPK/JNK (Cell Signaling, #9251), ROCK2 (Thermo Fisher Scientific PA5-21131), phospho-ROCK2 (Thermo Fisher Scientific PA5-34895), and goat anti-rabbit conjugated to horseradish peroxidase (Abcam, ab6721). Membranes were imaged using an Amersham Imager 600 (GE Healthcare) using Clarity Western ECL Substrate (Bio-Rad). The intensity of protein bands was quantified using ImageJ and standardized using total (phosphorylated + non-phosphorylated) protein content. Data are representative of three independent experiments.
Figure 7 The effects of peptides 1, 5, and 6 on IL-1β-induced phosphorylation of JNK, ROCK2, and p38. Graphical representations of band density analysis of Western Blots, sorted into columns based on protein of interest (JNK, ROCK2, or p38) and rows by peptide configuration [(3R-) or (3S)]. RAW-blue cells were pretreated with peptides 1, 5, 6, Kineret, or vehicle for 30 min and then stimulated with IL-1β for 15 min. Images of representative Western Blots can be found in the Supplementary Figure 1. Results shown are the average of 3 independent experiments: ^*p < 0.05, ^**p < 0.01, ^***p < 0.001, ^****p < 0.0001 compared to group treated only with IL-1β. Treatment groups that are not labeled with asterisks are statistically non-significant compared to group treated only with IL-1β.
(In general: In western blotting, separated proteins are transferred to a membrane and probed.)

The subject of a further experiment is IL-1β. As to the kind of experiment: qPCR of IL-1β-induced IL-1β expression in HEK-Blue IL-33/IL-1β cells. Type of experiment: cell-based, human. The arrangement: key to qPCR IL-1β (heatmap grade of inhibition): 0: No effect; No effect 01234 Maximum inhibition/efficacy; No effect 01234 Maximum inhibition/efficacy; No effect 01234 Maximum inhibition/efficacy; 4: Maximum inhibition/efficacy. As to conditions: for qPCR IL-1β (heatmap grade of inhibition): HEK-Blue cells, peptide 10^-6 M or Kineret 1.0 mg/mL 30 min, then IL-1β 100 ng/mL 4 h (legend: overnight); for Suppression of IL-1β transcription: HEK blue cells, 10^-6 M pre-treatment, IL-1β stimulation. Here is the method:
HEK-Blue IL-33/IL-1β cells were purchased from InvivoGen (San Diego, CA) and used at passages under 15. HEK-Blue cells were cultured in DMEM growth medium supplemented with 10% serum, 50 U/mL penicillin, […] streptomycin, […] zeocin, and […] hygromycin. Cells were grown in regular conditions (37°C, 5% CO2). Cells were serum starved overnight and treated with 100 ng/mL IL-1β for 4 h. Cells were pre-incubated for 30 min with peptides 1, 5, or 6 (10^−6M) or Kineret (1.0 mg/mL) prior to the experiments to reach equilibrium (n = 4 each treatment). Cells were harvested and incubated for 5 min in RIBOzol (AMRESCO). RNA was extracted according to manufacturer's protocol and RNA concentration and integrity were measured with a NanoDrop 1,000 spectrophotometer. A total of 500 ng RNA was used to synthetize cDNA using iScript Reverse Transcription SuperMix (Bio-Rad, Hercules, CA). Quantitative gene expression analysis was performed on Stratagene MXPro3000 (Stratagene) with SYBR Green Master Mix (Bio-Rad). Gene expression levels were normalized to 18S universal primer (Ambion Life Technology, Burlington ON, Canada). Genes analyzed include IL1β, IL6, and PTGHS2 [Prostaglandin H synthetase 2 or cyclooxygenase-2 (COX-2)]. Data are representative of 3 experiments (each with n = 4 per treatment group).
Figure 8 The effects of peptides 1, 5, and 6 on the expression of pro-inflammatory genes. HEK-Blue cells were pre-treated with peptides 1, 5, and 6 as above and stimulated with IL-1β overnight. qPCR was performed on cell lysates using 18S rRNA as internal control. Graphs are sorted in columns by gene of interest (COX-2, IL-1β, or IL-6) and rows by peptide configuration [(3R) or (3S)]. Results are representative of an average of 3 independent experiments (each with n = 4 per treatment group) and are expressed as a fold-change of the non-stimulated control: ^*p < 0.05, ^**p < 0.01, ^***p < 0.001, ^****p < 0.0001 compared to group treated only with IL-1β. Treatment groups that are not labeled with asterisks are statistically non-significant compared to group treated only with IL-1β.
For orientation: Real-time PCR tracks product formation cycle by cycle.

Turning to “Kineret: FDA-approved recombinant IL-1 receptor antagonist”, the “Western Blot ROCK2 (heatmap grade of inhibition)” value in the experiment on ROCK2 stood at 4. In the experiment with IL-1β, the “qPCR IL-1β (heatmap grade of inhibition)” value was 4.
With “H-D-Arg-D-Tyr-(S)-Agl-D-Val-D-Glu-D-Leu-D-Ala-NH2 [[(3S)-Agl^3]-1]”, the “Western Blot ROCK2 (heatmap grade of inhibition)” value with ROCK2 was 0. The “qPCR IL-1β (heatmap grade of inhibition)” value in the experiment with IL-1β is listed as 4.
On the same counts, the results for “H-D-Arg-D-Tyr-(3R,4R)-Hgl-D-Val-D-Glu-D-Leu-D-Ala-NH2 [[(3R,4R)-Hgl^3]-1]” are 4 and 4.
On the same counts, the results for “H-D-Arg-D-Tyr-(3R,4R)-Hgl-(S)-Val-D-Glu-D-Leu-D-Ala-NH2 [[(3R,4R)-Hgl^3-(S)-Val^4]-1]” are 4 and 3.
On the same counts, the results for “H-D-Arg-D-Tyr-(R)-Agl-D-Val-D-Glu-D-Leu-D-Ala-NH2 [[(3R)-Agl^3]-1]” are 0 and 4.
In the case of “H-D-Arg-D-Tyr-(R)-Agl-(S)-Val-D-Glu-D-Leu-D-Ala-NH2 [[(3R)-Agl^3-(S)-Val^4]-1]”, the “Western Blot ROCK2 (heatmap grade of inhibition)” value with ROCK2 is given as 2. In addition, in the experiment on IL-1β, the “Suppression of IL-1β transcription” value is recorded as “ability to suppress the transcription of all three genes was lost” and the “qPCR IL-1β (heatmap grade of inhibition)” value was 1.
As to “H-D-Arg-D-Tyr-(3S,4R)-Hgl-D-Val-D-Glu-D-Leu-D-Ala-NH2 [[(3S,4R)-Hgl^3]-1]”, in the experiment with ROCK2, the “Western Blot ROCK2 (heatmap grade of inhibition)” value was 3. In addition, the “qPCR IL-1β (heatmap grade of inhibition)” value with IL-1β worked out at 4.
On the same counts, the results for “H-D-Arg-D-Tyr-(3R,4S)-Hgl-(S)-Val-D-Glu-D-Leu-D-Ala-NH2 [[(3R,4S)-Hgl^3-(S)-Val^4]-1]” are 2 and 4.
Regarding “H-D-Arg-D-Tyr-(S)-Agl-(S)-Val-D-Glu-D-Leu-D-Ala-NH2 [[(3S)-Agl^3-(S)-Val^4]-1]”, the “Western Blot ROCK2 (heatmap grade of inhibition)” value in the experiment with ROCK2 stood at 3. Further, in the experiment on IL-1β, the “Suppression of IL-1β transcription” value is on record as “ability to suppress the transcription of all three genes was lost” and the “qPCR IL-1β (heatmap grade of inhibition)” value was 1.
“H-D-Arg-D-Tyr-(3R,4S)-Hgl-D-Val-D-Glu-D-Leu-D-Ala-NH2 [[(3R,4S)-Hgl^3]-1]”: in the experiment on ROCK2, the “Western Blot ROCK2 (heatmap grade of inhibition)” value came out at 4. For the same substance, the “qPCR IL-1β (heatmap grade of inhibition)” value with IL-1β is 4.
As for “H-D-Arg-D-Tyr-D-Thr-D-Val-D-Glu-D-Leu-D-Ala-NH2 [Peptide 1]”, in the experiment on ROCK2, the “Western Blot ROCK2 (heatmap grade of inhibition)” value came to 4. The “Inhibition of IL-1β-induced ROCK2 phosphorylation” value with ROCK2 (RAW-blue cells, 10^-6 M, 30 min, then IL-1β 15 min) is “inhibited the effects of all three kinases”. Besides, in the experiment on IL-1β, the “Suppression of IL-1β transcription” value is “strong suppression of transcription of all three genes” and the “qPCR IL-1β (heatmap grade of inhibition)” value was 4.

The record behind these values is publication PMC6381024, “Probing Anti-inflammatory Properties Independent of NF-κB Through Conformational Constraint of Peptide-Based Interleukin-1 Receptor Biased Ligands” (Frontiers in Chemistry, 2019).
